Test results reported in ChEMBL document CHEMBL4840363, “Genome-Guided Discovery of Highly Oxygenated Aromatic Polyketides, Saccharothrixins D-M, from the Rare Marine Actinomycete Saccharothrix sp. D09” (J Nat Prod, 2021).
Converted amounts (≈) assume the structure as drawn.

How the values were obtained:
Helicobacter pylori [1] = experiment: Antibacterial activity against Helicobacter pyroli G27 assessed as inhibition of bacterial growth incubated for 48 hrs; assay type: functional
Helicobacter pylori [2] = experiment: Antibacterial activity against Helicobacter pyroli 159 assessed as inhibition of bacterial growth incubated for 48 hrs; assay type: functional
Staphylococcus aureus = experiment: Antibacterial activity against Staphylococcus aureus ATCC25923 assessed as inhibition of bacterial growth incubated for 48 hrs; assay type: functional
A549 = experiment: Cytotoxicity against human A549 cells assessed as reduction in cell viability by MTT assay; assay type: functional, cell-based
MCF7 = experiment: Cytotoxicity against human MCF7 cells assessed as reduction in cell viability by MTT assay; assay type: functional, cell-based
HCT-116 = experiment: Cytotoxicity against human HCT-116 cells assessed as reduction in cell viability by MTT assay; assay type: functional, cell-based
HepG2 = experiment: Cytotoxicity against human HepG2 cells assessed as reduction in cell viability by MTT assay; assay type: functional, cell-based
RAW264.7 = experiment: Antiinflammatory activity against mouse RAW264.7 cells assessed as inhibition of LPS induced NO production preincubated for 30 mins followed by LPS addition measured after 48 hrs by griess reagent based assay; assay type: functional, cell-based

Structure (SMILES)	MIC (Helicobacter pylori [1]) [µg/mL]	MIC (Helicobacter pylori [2]) [µg/mL]	MIC (Staphylococcus aureus) [µg/mL]	IC50 (A549) [µM]	IC50 (MCF7) [µM]	IC50 (HCT-116) [µM]	IC50 (HepG2) [µM]	IC50 (RAW264.7) [µM]
Cc1cc(O[C@H]2O[C@@H](C)[C@H](O)[C@@H](O)[C@H]2O)c2c3c(ccc2c1)C(=O)c1c(O)cccc1[C@@H]3O	16 (≈ 35.4 µM)	16 (≈ 35.4 µM)	16 (≈ 35.4 µM)	> 20	> 20	> 20	> 20	–
COc1cccc2c1[C@H](O)[C@]13C=C[C@]4(O)CC(C)=CC(=O)[C@@H]4[C@]1(O3)[C@H]2O	–	32 (≈ 89.8 µM)	–	> 20	> 20	> 20	> 20	–
COc1cccc2c1[C@H](O)[C@]13C=C[C@]4(O)CC(C)=CC(=O)[C@@H]4[C@]1(O3)C2=O	–	32 (≈ 90.3 µM)	–	> 20	> 20	> 20	> 20	28
